We go through 2 compounds from US6489481B1, “Method for treating neurological disorders” (AstraZeneca AB, priority 1998, dated 2002).

Structures can show the parent of a compound that is named as a salt.

For experiment [1], the target named is T1, emopamil binding protein (Cavia porcellus, UniProt Q60490).
T1 construct: Guinea pig liver membranes: 40 mg/mL original wet weight; from tissue; host or cells: guinea pig liver membranes (male guinea pigs)
T1 sequence (Q60490 1-229): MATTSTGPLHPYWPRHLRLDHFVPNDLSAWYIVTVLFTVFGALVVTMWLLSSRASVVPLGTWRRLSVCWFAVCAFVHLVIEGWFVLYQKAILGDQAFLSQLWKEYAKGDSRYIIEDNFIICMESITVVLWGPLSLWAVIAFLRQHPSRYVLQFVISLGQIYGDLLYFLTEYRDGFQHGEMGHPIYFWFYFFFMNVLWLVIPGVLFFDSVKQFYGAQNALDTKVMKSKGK
Description: Displacement of 3H-emopamil binding to guinea pig liver membranes. To be noted: 0.96 nM (-)-3H-emopamil. As to the method: Displacement of ^3H-Emopamil Binding to Guinea Pig Liver Membranes
The method of displacement of ^3H-emopamil binding was a modification of Zech et al (1991) Eur. J. Pharm. 208:119-130.
The Guinea-pig liver membranes were prepared as follows: Male guinea pigs were sacrificed by CO2 asphyxiation with dry ice. The livers were quickly excised and weighed and rinsed in membrane preparation buffer containing 10 mM Hepes, 1 mM Tris base-EDTA, 250 mM sucrose, pH 7.4. The livers were then minced homogenized in 10 times volume with a motor driven Teflon-glass homogenizer with three strokes on ice. The homogenate was centrifuged at 1000×g in a SS34 rotor for 5 minutes at 4° C. The supernatant was filtered through 4 layers of gauze and then centrifuged at 8000×g for 10 minutes 4° C. This resulting supernatant was centrifuged at 40,000×g for 15 minutes at 4° C. The resulting pellet was resuspended in assay buffer and centrifuged again at 40,000×g for 15 minutes at 4° C. This pellet was resuspended in assay buffer (2.5 fold with respect to original wet weight) and homogenized with one stroke with the Teflon-glass homogenizer. Aliquots of 1 mL were stored at −70° C.
The displacement assay was performed as follows: The reaction mixture contained: Assay buffer: 10 mM Tris-HCl, 0.1 mM phenylmethylsulfonyl fluoride (PMSF), 0.2% bovine serum albumin (BSA), pH 7.4 at […]. […]
A general note: In a radioligand displacement assay an active substance lowers the binding of a labelled ligand.

Experiment [2] has as its system PC12 cells. Description: Inhibition of apoptosis in PC12 cells induced by NGF withdrawal (Cell Death Detection ELISA). The experiment is classed as cell-based, rat. As to the method: Inhibition of Apoptosis in PC12 Cells Induced by NGF Withdrawal
Rat PC12 cells (ATCC Accession Number CRL-1721) were grown in RPMI0-1640 buffer containing 10% heat-inactivated Fetal Bovine Serum (FBS) and 1% L-glutamine (Gibco). Cells were plated in 100 mm Collagen I Falcon plates (Becton Dickinson)at a density of ˜1×10^6-2×10^6 and passed every other day at 1:10 ratio (cells were trypsinized and centrifuged at 1000 rpm for 5 min. Cells were resuspended and plated at the density of 1-2×10^6 cells). Tamoxifen was dissolved in DMSO at a concentration of 10 mM. Subsequent dilutions were done in PC12 cell growth medium containing 1% FBS. […]
Cells were harvested at various time points after the NGF withdrawal procedure to determine the time course of cell death. […] Compounds were used at various concentrations and the extent of apoptosis that occurred in the presence of compounds was expressed as a percentage relative to control cultures that were exposed to vehicle only. […]
Cell death was measured using a Cell Death Detection ELISA (Boehringer-Mannheim Cat# 1774425) according to manufacturers instructions.The ELISA is a photometric enzyme-immunoassay which determines the amount of cytoplasmic histone-associated-DNA-fragments after induced cell death. […]
A general note: An ELISA detects its analyte on a solid surface through an enzyme-linked reagent.

The subject of experiment [3] is mouse cortical neurons. In words: Inhibition of NMDA-induced death of mouse cortical neurons in primary cell culture (LDH). As to conditions: result in words; NMDA-induced neuronal death is the patent's necrosis model. It counts as cell-based.
Description: Inhibition of NMDA-induced Death of Mouse Cortical Neurons in Primary Cell Culture
A glial feeder layer was prepared from post-natal day 1 or 2 mice. Cortices were dissected in a Ca^2+/Mg^2+-free balanced salt solution, minced, incubated in media stock (MS: GIBCO's MEM supplemented with bicarbonate, glucose, and glutamine) containing trypsin for 30 minutes at 37° C., and centrifuged at 1500 g for 5 minutes to produce a cell pellet. The pellet was re-suspended in plating media (MS supplemented with horse and fetal calf serum) and triturated with a glass pasteur pipette. Cells were plated in 24-well Falcon Primaria tissue culture dishes at a density of 0.5 hemispheres per plate. The dishes had been coated overnight with 10 mg/ml mouse laminin and 25 mg/ml poly-lysine, then washed three times with water. The glial feeder layer was maintained in a humidified atmosphere of 5% CO2/95% air at 37° C. for two weeks. […]
LDH activity was measured as follows: 50 ml of cell-culture media from each well was mixed with 200 ml 0.1 M KH2PO4 containing 30 mg NADH, in a 96-well microtitre plate. After 10 minutes at room temperature, 30 ml of 2.4 mM sodium pyruvate was added, and the absorbance of this solution at 340nm was immediately measured at 15 second intervals for approximately 6 minutes using a Molecular Devices Spectromax 250 plate-reader. […]

The IC50 is the concentration that gives 50% inhibition. A high value points to weaker potency. As to `CC/C(=C(/c1ccc(OCCN(C)C)cc1)c1ccc(OC(=O)C(C)(C)C)cc1)c1ccccc1` [Example 11, 2,2-dimethyl-, 4-[1-[4-[2-(dimethylamino)ethoxy]phenyl]-2-phenyl-1-butenyl]phenyl Propanoic acid ester, (E)-], the IC50 in experiment [1] was determined as 75 nM. Also, in experiment [2] (relative to vehicle-only control cultures, 100% = no inhibition of apoptosis, 0% = total inhibition), the “percentage in the PC12 assay (extent of apoptosis relative to control)” value is given as 41%.

`CC/C(=C(\c1ccccc1)c1ccc(OCCN(C)C)cc1)c1ccccc1` [tamoxifen citrate]: the inhibition of necrosis entry in experiment [3] is “inhibit both apoptosis and necrosis”. Besides, the inhibition of apoptosis result in experiment [2] (result in words) is “inhibit both apoptosis and necrosis”.
